Our source for the IC50 values is patent US20250026721A1, “COMPOUNDS AND METHODS FOR MODULATING RAS-PI3K” (Vividion Therapeutics, Inc., priority 2023, published 2025).

One assay addresses T1, PIK3CA_C242 (Homo sapiens, UniProt P42336).
T1 construct: endogenous in cells; host or cells: Jurkat cell lysate
The experiment in a line: Proteomic TE50 (IA-DTB / TMT mass spectrometry) in Jurkat cell lysate. Conditions: 1 hour at rt, 7-point dose response. In kind it is binding. The procedure: Example 4. Proteomic TE50 In vitro TE50 values for PIK3CA_C242 were obtained by treating 500 μg of cell lysate generated from Jurkat cells with DMSO or compound for 1 hour at rt followed by the addition of 200 μM desthiobiotin polyethyleneoxide iodoacetamide (IA-DTB) in DMSO for one hour at rt. Compounds were serially diluted 1:5 for a total of 7 points in order to generate dose response curves. Samples were then precipitated by the addition of 8× ice cold acetone and incubated at -80° C. for two hours. Protein was then pelleted by centrifugation (4,200 RPM, 45 min, 4° C.). The pelleted material was resuspended in 9M urea, 50 mM ammonium bicarbonate and proteins were reduced and alkylated by the addition of DTT and iodoacetamide (10 and 30 mM, respectively). Following reduction and alkylation, samples were exchanged into 2M urea (Zeba spin desalting plates, Thermo Fisher) and digested with Trypsin. IA-DTB labeled peptides were isolated with streptavidin agarose resin. Enriched peptides were eluted by the addition of 50% acetonitrile (ACN) 0.1% formic acid (FA) and dried in a SpeedVac vacuum concentrator. […] Reactions were quenched by the addition of 6.5 μL of 5% hydroxylamine. Samples were then combined and desalted on a Evolute express ABN plate (Biotage, 600-0010-PX01). Targeted TMT measurements were collected using an Orbitrap Lumos Tribrid Mass Spectrometer (Thermo Scientific) coupled to an UltiMate 3000 Series Rapid Separation LC system and autosampler (Thermo Scientific Dionex). Peptides were eluted onto a custom C18 capillary analytical column (75-μm inner diameter fused silica, packed with Acclaim PepMap C18 resin; Thermo Scientific) using an Acclaim PepMap 100 (Thermo 164535) loading column, and separated at a flow rate of […]. Data were acquired using a specific MS3-based TMT method targeting the peptide containing […], +2 charge state) where MS2 peptide fragmentation is triggered upon detection of the peptide precursor ion. Subsequent MS3 analysis was then performed using pre-selected peptide fragment ions that were isolated for fragmentation using synchronous precursor selection. RAW files were converted to MZXML format and searched with the SEQUEST algorithm using the […] software package. TMT quantitation was performed with a filter requiring at least ten summed signal-to-noise (S/N) for control channels. TE50 values were calculated from 7-point dose response curves created using the reporter ion S/N for each channel.

The next assay addresses T2, PIK3CA (Homo sapiens, UniProt P42336).
T2 construct: endogenous in cells; host or cells: Jurkat cell lysate
The experiment in a line: In vitro ELISA target engagement assay for PIK3CA in Jurkat cellular lysate (competition with PIK3CA Biotin Probe). In kind it is binding. As to conditions: 1 hour at rt, then 500 nM PIK3CA Biotin Probe, read-out: Elisa Target Engagement Assay (TE50). The essentials:
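Competition format in Jurkat lysate: compound (serial dilutions, top 200 μM) for 1 h at rt, then 500 nM final biotinylated PIK3CA probe for 1 h at rt. Sandwich ELISA with capture antibody and Neutravidin-HRP luminescence read-out measured probe-labelled PIK3CA, giving TE50.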
On the technique in general: An ELISA detects its analyte on a solid surface through an enzyme-linked reagent.

T2 sequence (P42336 whole entry): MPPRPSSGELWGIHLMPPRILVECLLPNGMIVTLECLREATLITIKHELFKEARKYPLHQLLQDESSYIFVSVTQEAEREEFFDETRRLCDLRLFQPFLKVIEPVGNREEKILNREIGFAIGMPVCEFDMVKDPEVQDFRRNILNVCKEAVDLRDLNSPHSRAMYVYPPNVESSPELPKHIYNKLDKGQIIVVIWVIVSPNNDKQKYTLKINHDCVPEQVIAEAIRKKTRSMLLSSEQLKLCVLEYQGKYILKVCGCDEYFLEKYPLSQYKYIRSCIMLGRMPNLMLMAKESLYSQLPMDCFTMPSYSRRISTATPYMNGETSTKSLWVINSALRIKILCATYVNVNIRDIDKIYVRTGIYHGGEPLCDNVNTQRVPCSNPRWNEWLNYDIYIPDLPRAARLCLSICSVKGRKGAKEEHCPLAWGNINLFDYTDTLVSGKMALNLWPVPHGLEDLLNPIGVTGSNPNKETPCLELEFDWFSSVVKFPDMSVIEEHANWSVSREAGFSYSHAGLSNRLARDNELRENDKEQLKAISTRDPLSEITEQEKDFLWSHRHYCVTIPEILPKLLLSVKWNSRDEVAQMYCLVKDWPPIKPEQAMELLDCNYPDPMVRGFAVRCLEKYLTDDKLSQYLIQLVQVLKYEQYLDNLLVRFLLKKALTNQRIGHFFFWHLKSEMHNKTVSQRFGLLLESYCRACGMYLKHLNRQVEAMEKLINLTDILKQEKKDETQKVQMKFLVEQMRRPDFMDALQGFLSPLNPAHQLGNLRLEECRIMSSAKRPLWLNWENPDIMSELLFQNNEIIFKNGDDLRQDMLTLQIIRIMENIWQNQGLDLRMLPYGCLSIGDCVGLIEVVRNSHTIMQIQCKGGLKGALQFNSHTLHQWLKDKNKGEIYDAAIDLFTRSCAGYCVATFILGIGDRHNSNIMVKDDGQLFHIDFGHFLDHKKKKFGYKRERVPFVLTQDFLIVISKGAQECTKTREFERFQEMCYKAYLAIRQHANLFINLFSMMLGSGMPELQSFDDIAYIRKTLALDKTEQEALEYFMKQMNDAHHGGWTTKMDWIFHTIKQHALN
T2 sequence (P27986 whole entry partner): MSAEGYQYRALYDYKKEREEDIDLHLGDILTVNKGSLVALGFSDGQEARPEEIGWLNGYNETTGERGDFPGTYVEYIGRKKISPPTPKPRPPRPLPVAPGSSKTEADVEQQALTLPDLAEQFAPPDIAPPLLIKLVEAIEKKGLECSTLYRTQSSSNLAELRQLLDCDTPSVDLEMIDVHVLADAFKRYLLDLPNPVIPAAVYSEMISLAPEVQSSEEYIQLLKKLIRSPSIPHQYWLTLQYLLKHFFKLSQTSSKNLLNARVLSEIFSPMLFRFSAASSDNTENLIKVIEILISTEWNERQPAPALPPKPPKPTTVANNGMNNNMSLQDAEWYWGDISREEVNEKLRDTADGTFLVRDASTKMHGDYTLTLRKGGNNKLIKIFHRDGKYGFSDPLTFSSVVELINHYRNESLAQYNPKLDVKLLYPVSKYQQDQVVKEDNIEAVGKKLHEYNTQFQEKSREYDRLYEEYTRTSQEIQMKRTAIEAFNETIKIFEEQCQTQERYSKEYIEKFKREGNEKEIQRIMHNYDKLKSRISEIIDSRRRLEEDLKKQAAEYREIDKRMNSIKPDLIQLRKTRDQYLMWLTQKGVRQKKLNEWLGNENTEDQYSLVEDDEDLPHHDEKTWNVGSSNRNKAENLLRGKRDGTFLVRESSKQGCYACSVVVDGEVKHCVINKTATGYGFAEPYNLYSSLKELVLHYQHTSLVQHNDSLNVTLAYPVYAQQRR
T1 sequence (P42336 whole entry): as the sequence (P42336 whole entry) above
T1 sequence (P27986 whole entry partner): as the sequence (P27986 whole entry partner) above

As to `COc1cccc(-c2cc(N(C)C)ccc2S(=O)(=O)N2CCC(F)(C(=O)N[C@@H](C)/C=C\S(C)(=O)=O)CC2)c1` (racemic) [Compound 86, 1-[4-(Dimethylamino)-2-(3-methoxyphenyl)phenyl]sulfonyl-4-fluoro-N-[rac-(Z, 1S)-1-methyl-3-methylsulfonyl-allyl]piperidine-4-carboxamide], the IC50 against PIK3CA_C242 stood at 107 nM; on PIK3CA, 60 nM.

For the molecule `CCCCCOc1cccc(-c2cc(Cl)ccc2S(=O)(=O)N2CCC(F)(C(=O)N[C@@H](C)/C=C\S(C)(=O)=O)CC2)c1` [Compound 262, (S,Z)-1-((5-chloro-3′-(pentyloxy)-[1,1′-biphenyl]-2-yl)sulfonyl)-4-fluoro-N-(4-(methylsulfonyl)but-3-en-2-yl)piperidine-4-carboxamide], the IC50 was 430 nM against PIK3CA_C242 and 780 nM on PIK3CA. The matching figures for `COc1cccc(-c2cc(N(C)C)ccc2S(=O)(=O)N2CCC(F)(C(=O)N[C@@H](C)/C=C\S(C)(=O)=O)CC2)c1Cl` [Compound 90, (S,Z)-1-((2′-chloro-5-(dimethylamino)-3′-methoxy-[1,1′-biphenyl]-2-yl)sulfonyl)-4-fluoro-N-(4-(methylsulfonyl)but-3-en-2-yl)piperidine-4-carboxamide]: 330 nM and 250 nM. The matching figures for `C[C@H](/C=C\S(C)(=O)=O)NC(=O)C1(F)CCN(S(=O)(=O)c2cn(C)c(=O)cc2-c2ccccc2Cl)CC1` [Compound 274, (R,Z)-1-((4-(2-chlorophenyl)-1-methyl-6-oxo-1,6-dihydropyridin-3-yl)sulfonyl)-4-fluoro-N-(4-(methylsulfonyl)but-3-en-2-yl)piperidine-4-carboxamide]: 570 nM and 1100 nM. Regarding `Cc1ccccc1-c1cc(OC(C)C)ccc1S(=O)(=O)N1CCC(F)(C(=O)N[C@H](C)/C=C\S(C)(=O)=O)CC1` [Compound 103, (R,Z)-4-fluoro-1-((5-isopropoxy-2′-methyl-[1,1′-biphenyl]-2-yl)sulfonyl)-N-(4-(methylsulfonyl)but-3-en-2-yl)piperidine-4-carboxamide], at PIK3CA_C242, the IC50 was 830 nM. `COc1cccc(-c2cc(Br)ccc2S(=O)(=O)N2CCC(F)(C(=O)NC/C=C/S(C)(=O)=O)CC2)c1` [Compound 63, (E)-1-((5-bromo-3′-methoxy-[1,1′-biphenyl]-2-yl)sulfonyl)-4-fluoro-N-(3-(methylsulfonyl)allyl)piperidine-4-carboxamide] gave an IC50 against PIK3CA_C242 of 360 nM.

`COc1cccc(-c2cc(N(C)C)ccc2S(=O)(=O)N2CCC(F)(C(=O)NC/C=C/S(C)(=O)=O)CC2)c1` [Compound 96, (E)-1-((5-(dimethylamino)-3′-methoxy-[1,1′-biphenyl]-2-yl)sulfonyl)-4-fluoro-N-(3-(methylsulfonyl)allyl)piperidine-4-carboxamide] had an IC50 on PIK3CA_C242 of 410 nM.

Molecule `Cc1ccccc1-c1cc(N2CCCC2)ccc1S(=O)(=O)N1CCC(F)(C(=O)N[C@H](C)/C=C\S(C)(=O)=O)CC1` [Compound 120, (R,Z)-4-fluoro-1-((2′-methyl-5-(pyrrolidin-1-yl)-[1,1′-biphenyl]-2-yl)sulfonyl)-N-(4-(methylsulfonyl)but-3-en-2-yl)piperidine-4-carboxamide] returned an IC50 against PIK3CA_C242 of 250 nM. The same measure, in the same setting: for `C[C@H](/C=C\S(C)(=O)=O)NC(=O)C1(F)CCN(S(=O)(=O)c2ccc(C3CCC3)cc2-c2ccccc2Cl)CC1` [Compound 98, (R,Z)-1-((2′-chloro-5-cyclobutyl-[1,1′-biphenyl]-2-yl)sulfonyl)-4-fluoro-N-(4-(methylsulfonyl)but-3-en-2-yl)piperidine-4-carboxamide] the value was 520 nM; for `COc1cc(-c2ccccc2Cl)c(S(=O)(=O)N2CCC(F)(C(=O)NC/C=C\C#N)CC2)cn1` [Compound 194, (Z)-1-((4-(2-chlorophenyl)-6-methoxypyridin-3-yl)sulfonyl)-N-(3-cyanoallyl)-4-fluoropiperidine-4-carboxamide], 270 nM.
